Data taken from the METLIN SMRT retention time set (Domingo-Almenara et al. 2019).

Experiment: gradient 5% acetonitrile 3 min, to 50% in 2 min, to 85% in 15 min, held 3 min, 100 µL/min
Details: column: Zorbax Extend-C18 2.1 x 50 mm; eluents: water / acetonitrile, 0.1% formic acid
Method in brief: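 Data were gathered over 3 months by HPLC coupled to a quadrupole time-of-flight mass spectrometer, operated in positive and negative ionization mode. Mixtures of ~100 pure standards ran on a Zorbax Extend-C18 column (2.1 × 50 mm, 1.8 μm) at 100 μL/min, with water and acetonitrile each containing 0.1% formic acid and dead and dwell volumes of 40 μL and 900 μL. Retention time was read from adduct peaks picked by computer and checked manually.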

SMILES	RP-LC retention time
CCc1c(C)nc2ncnn2c1NC(C)C	670 s
Cc1ccc(-c2noc(C3CCCN3C(=O)C3CC(=O)N(c4ccc(C)c(C)c4)C3)n2)cc1 (stereo not drawn)	1050 s
Cc1ccc(NS(=O)(=O)c2cc(-c3[nH]ncc3C(=O)N3CCCCC3)oc2C)c(C)c1	791 s
CNC(=O)N1C[C@@H](CN(C)C)[C@H](NC(=O)C2(c3ccc(OC)cc3)CC2)C1	572 s
CCN(CC)CCCNC(=O)c1cc2n(n1)CC(C)(C(=O)NCc1ccc(F)cc1)N(C)C2=O (stereo not drawn)	596 s
Cc1cc(N2CCN(C)CC2)n2nc(-c3ccc(Cl)cc3)nc2n1	658 s
Cc1ccnc(NC(=O)C2CCCN(c3ncnc4c3nc3n4CCCCC3)C2)c1 (stereo not drawn)	643 s
Cc1ccc(-c2c(-c3nn(C)c4ncnc(N5CC[C@H](N6CCCCC6)C5)c34)cnn2C)cc1	657 s
CN(C)S(=O)(=O)c1ccc(C(=O)N2CCC3(CC2)OCCS3)cc1	724 s
Cn1cnnc1C1CCCCN1S(=O)(=O)c1cccs1 (stereo not drawn)	639 s
CCc1ccc(-c2noc(Cn3c(=O)n(-c4cccc(C)c4)c(=O)c4sccc43)n2)cc1	1150 s
Cc1[nH]c(C)c(S(=O)(=O)N2CCC(C(=O)Nc3ccc(Cl)cc3)CC2)c1C(=O)N1CCCC1	788 s
CCOC(=O)Cc1ccc(NC(=O)N2CCCC2c2c(C)noc2C)cc1 (stereo not drawn)	775 s
O=C(NC1CCCCCCC1)C1CCCN(C(=O)c2cc(-c3ccncc3)n[nH]2)C1 (stereo not drawn)	646 s
CC1CCN(c2nnc(-c3nc(C4CC4)no3)c3ccccc23)CC1	1140 s
COc1ccc(S(=O)(=O)N2C[C@H](F)C[C@@H]2C(=O)N2CCOCC2)cc1Cl	721 s
COc1ccc(NC(=O)Cn2ncc3c(c2=O)N(C2CC2)C(=O)CS3)cc1OC	647 s
COc1ccc(N2CC(c3noc(-c4cccc(OC)c4)n3)CC2=O)cc1 (stereo not drawn)	922 s
COCc1nnc(NS(=O)(=O)c2ccc([N+](=O)[O-])cc2)s1	702 s
COc1cccc(NS(=O)(=O)c2cc(-c3cc(C(F)(F)F)on3)sc2C)c1	1110 s
COc1ccc(-c2nc(-c3ccc4c(c3)oc(=O)n4C(C)C)no2)cc1	1070 s
CCCC(=O)Nc1cnc(N2CCNCC2)c(C(=O)N(CC(C)C)CC(C)C)c1	652 s
O=C(Cn1cccn1)NC1CCc2nnc(C3CC3)n2CC1 (stereo not drawn)	543 s
C[C@@]1(c2cc(-c3cncnc3)c(F)cc2F)CCSC(N)=N1	654 s
CCn1c(=O)c(N2CCN(S(=O)(=O)c3ccc4c(c3)CCC4)CC2)nc2ccncc21	748 s

SMILES	RP-LC retention time
CN(CC1CCOCC1)C(=O)NCc1cccc(F)c1	684 s
CCN1C(=O)c2c(C(=O)NCc3cccc(F)c3)ncn2CC1(C)C(=O)NC1CCCC1 (stereo not drawn)	762 s
O=C(CCC1CCN(S(=O)(=O)c2ccccc2)CC1)N1CCCCC1	894 s
Cc1cc(S(=O)(=O)N2C[C@H](F)C[C@@H]2C(=O)N2CCOCC2)ccc1Cl	753 s
Cc1cc(F)ccc1NS(=O)(=O)c1cc(-c2nc(C(C)(C)C)cs2)cs1	1260 s
CCc1nnc(NS(=O)(=O)c2ccc(NC(=O)c3ccc(Cl)s3)cc2)s1	821 s
CCN1C(=O)c2cccnc2Sc2cc(CNC(=O)c3ccc(NC(C)=O)cc3)ccc21	654 s
Cn1nccc1-c1csc(S(=O)(=O)NC2CCCC2)c1	806 s
CCCCN1CCN(C(=O)c2cn(-c3cc(N4CCSCC4)ncn3)cn2)CC1	639 s
CC(C)c1cccc(NC(=O)Cn2cnc3nc(N4CCC(C(=O)NC5CC5)CC4)sc3c2=O)c1	743 s
CC(=O)N1CCC2(CC1)CC(CC(=O)N(C)C)CCO2 (stereo not drawn)	587 s
O=S(=O)(c1ccc(-c2cc(C(F)(F)F)on2)s1)N1CCN(c2ccccn2)CC1	883 s
CCSc1nc2ccc(NS(=O)(=O)c3ccc4c(c3)CCC4)cc2s1	1110 s
Cc1ccc(CNC(=O)C2CCCN(c3cc(=O)n(C)c(=O)n3C)C2)o1 (stereo not drawn)	583 s
O=C(c1ccc(F)c(F)c1)N1CCN(C(=O)c2nnn3c2COC(c2ccc(Cl)cc2)C3)CC1 (stereo not drawn)	937 s
Cc1nc(-c2cc(S(=O)(=O)N3CCN(c4ccccc4Cl)CC3)c(C)s2)cs1	1240 s
CCCNC(=O)N(C1CCOCC1)C1CCN(S(=O)(=O)c2cc(F)ccc2C)CC1	897 s
Cc1cc(N2CCC(NC(=O)Nc3ccc(F)cc3F)C2=O)ccc1F (stereo not drawn)	845 s
CCOC(=O)c1cc(C2CC2)nc2c1c(=O)n(CC(=O)NC1CCCC1)c(=O)n2C	952 s
Cc1cc(NC(=O)Cn2cc3c(n2)CCCCC3)ccc1Br	1030 s
COCCN1C(=O)[C@H]2CN(Cc3cccc(Br)c3)C[C@H]2C1=O	656 s
CC(=O)N1CCc2cc(-c3ccc(C(=O)NCCN4CCCC4)cc3)ccc21	607 s
CC(C)C(=O)Nc1ccc(N2CCN(CC(=O)N3CCCC3)CC2)cc1C(=O)O	587 s
Cc1cc(C)cc(-n2ccnc(NC(=O)Nc3ccc(F)c(Cl)c3)c2=O)c1	1150 s

Now from value to compound:

RP-LC retention time	SMILES
995 s	O=C1COc2ccccc2N1Cc1nc(-c2ccccc2Cl)no1
1090 s	CCN(CC)c1nc2cc(C(=O)NCC3CC3)ccc2c(=O)n1Cc1ccc(C)cc1
622 s	C=CCNC(=O)CCc1c(-c2ccc(Br)cc2)nc2ccccn12
722 s	O=C(NCC1CCN(C(=O)COc2ccccc2)CC1)c1ccc(Br)o1
1250 s	COc1cccc(Cn2c(=O)c3cnc(-c4ccc(C)cc4)nc3n(C)c2=O)c1
804 s	CCN(c1ccc(OC)cc1)S(=O)(=O)c1ccc2c(c1)CCCC(=O)N2
807 s	COc1cccc(C(=O)NC2CCN(c3cc(-c4ccc(Cl)cc4)[nH]n3)C2)c1OC (stereo not drawn)
957 s	CCCCOc1ccc(-c2nc3ncccn3c2NC2CCCCC2)cc1
669 s	COc1ccc2c(C)c(C(=O)NCCn3ncccc3=O)oc2c1
894 s	Cc1ccccc1NC(=O)CN1C(=O)CC(c2ccccc2)S(=O)(=O)c2ccccc21 (stereo not drawn)
625 s	CN(CCc1noc(-c2ccc(C(=O)N3CCN(c4ccccn4)CC3)cc2)n1)C(=O)c1ccccc1
698 s	Cc1cc(C)n2nc(SCC(=O)NCc3ccccc3Cl)nc2n1
980 s	CCOc1ccc(N2C(=O)C3N=NN(Cc4nc(-c5ccccc5OCC)no4)C3C2=O)cc1 (stereo not drawn)
1120 s	CCOc1ccc(-n2c(N3CCSC3)nc3cc(C(=O)OC)ccc3c2=O)cc1
856 s	O=C(NCCC1CCN(S(=O)(=O)c2ccccc2)CC1)Nc1ccccc1
714 s	COc1cccc(-n2cc(C(=O)OCCc3ccccn3)c3ccccc3c2=O)c1
1170 s	Clc1ccc(Cc2noc(Cc3nc(-c4ccccc4)cs3)n2)cc1
595 s	CN1CCN(CCCNC(=O)CCCN2C(=O)C(c3ccccc3)Oc3cccnc32)CC1 (stereo not drawn)
1160 s	CCCN1C(=O)COc2ccc(-c3noc(C(C)Oc4ccccc4)n3)cc21 (stereo not drawn)
779 s	O=C(NCc1ccco1)c1nc(Nc2ccc(F)cc2)c2ccccc2n1

RP-LC retention time	SMILES
674 s	Cc1ccc(S(=O)(=O)Nc2cccc(-c3cn4cccc(C)c4n3)c2)cc1
1230 s	Cc1ccc(C2Cn3nnc(-c4nc(-c5ccccc5F)no4)c3CO2)c(C)c1 (stereo not drawn)
770 s	O=C1NC2(CCN(C(=O)NCc3cccc(F)c3)CC2)Nc2cc(Cl)ccc21
1140 s	CCCn1c(=O)c(C)nc2cc(-c3noc(-c4cccc(OC)c4OC)n3)ccc21
922 s	COc1ccc(CNC(=O)c2nsc(C(=O)NCCc3ccc(OC)c(OC)c3)c2N)cc1
804 s	COc1cccc(-c2ccc(=O)n(CCc3nc(-c4ccc5c(c4)OCO5)no3)n2)c1
648 s	Cn1nc2n(c1=O)CCC(NS(=O)(=O)c1cccc3cccnc13)CC2 (stereo not drawn)
679 s	NCC(O)COc1cccc2ccccc12 (stereo not drawn)
963 s	O=C(NCCc1csc(-c2cccs2)n1)C1CCN(S(=O)(=O)c2ccc(Cl)cc2)CC1
856 s	O=C(NCc1cc(-c2cc3ccccc3o2)on1)c1ccc2c(c1)OCO2
1270 s	CCOc1ccc(-c2noc(Cn3c(=O)n(CC(C)C)c(=O)c4ccccc43)n2)cc1OC
844 s	O=C(NCc1cnoc1-c1ccc(F)cc1)c1ccccc1
957 s	CCOc1ccc(-c2noc(Cn3c(=O)n(CC4CCCO4)c(=O)c4ccccc43)n2)cc1OC (stereo not drawn)
972 s	CC1Cc2ccccc2N1Cc1nnc(-c2ccccc2)o1 (stereo not drawn)
729 s	COc1ccc(-c2nc(-c3ccc4ncn(C(C)C)c4c3)no2)c(OC)c1
825 s	CC(C)CNC(=O)c1ccc(-c2cccs2)nc1
844 s	Cc1ccc2nc(NC(=O)CSc3ccc(-n4cccn4)nn3)sc2c1
634 s	COc1ccc(N2CCn3c2nn(CC(=O)NCc2ccco2)c(=O)c3=O)cc1
1070 s	COc1ccccc1-c1csc(-c2nnn(-c3ccc(F)cc3)c2N)n1
